Results taken from US11918645B2, “Vaccines against hepatitis B virus” (priority 2012, dated 2024).

What was measured:
[1] = preparation of pool 22
[2] = test system: HLA class II alleles; experiment: ProImmune REVEAL MHC class II binding assay, summary over the seven alleles; set-up: species or system human; conditions: number of class II alleles for which positive binding (score >=15%) was detected
Text: (§1) The highly frequent HLA class II alleles HLA-DR1 (α1*01:01;β1*01:01), HLA-DR15 (α1*01:01;β1*15:01), HLA-DR3 (α1*01:01;β1*03:01), HLA-DR4 (α1*01:01;β1*04:01), HLA-DR11 (α1*01:01;β1*11:01), HLA-DR13 (α1*01:01;β1*13:01), and HLA-DR7 (α1*01:01;β1*07:01) were selected. Each peptide was given a score relative to the positive control peptide, which is a known T-cell epitope. The score of the test peptide is reported quantitatively as a percentage of the signal generated by the positive control peptide, and the peptide is indicated as having a putative pass or fail result. Good binders are considered to be those peptides with scores >=15% of the positive control as defined by Proimmune.

[3] = biological target: T1, HLA-DR15 (α1*01:01;β1*15:01) (Homo sapiens, UniProt P01903+P01911); experiment: ProImmune REVEAL MHC class II binding assay of long peptides; conditions: percentage of the signal of the positive control peptide; positive binding score >=15%
T1 construct: purchased ProImmune
Text: as §1

[4] = biological target: T2, HLA-DR7 (α1*01:01;β1*07:01) (Homo sapiens, UniProt P01903+P01911, A100R/A102G/A103Q/D57E/D86V/E43K/F76Y/K127E/L162R/M171V/P40G/Q125H/Q99D/R195Q/R33Q/R42Y/R54Q/S133A/S149N/S66F/T210M/V115G/Y107V/Y59L/Y89S); experiment: as above; conditions: percentage of the signal of the positive control peptide; positive binding score >=15%
T2 construct: purchased ProImmune
Text: as §1

[5] = test system: HLA-DR1 (α1*01:01;β1*01:01); experiment: as above; set-up: species or system human; conditions: percentage of the signal of the positive control peptide; positive binding score >=15%
Text: as §1

[6] = test system: HLA-DR3 (α1*01:01;β1*03:0); experiment: as above; set-up: species or system human; conditions: percentage of the signal of the positive control peptide; positive binding score >=15%
Text: as §1

[7] = test system: HLA class I alleles; experiment: ProImmune REVEAL MHC class I binding assay, summary over the seven alleles; set-up: species or system human; conditions: for Number of allele (b): number of class I alleles for which positive binding was detected; for Number of HLA binders (a): total number binding epitopes detected for each long peptide, seven class I alleles
Text: (§2) The number of HLA class I binding registers contained in each peptide may be determined by determining the ability of the peptide to bind to a range of frequently occurring HLA class I molecules. HLA class I binding may be measured using the ProImmune REVEAL® MHC-peptide Binding Assay (ProImmune Ltd, Oxford, UK). The REVEAL™ MHC peptide-binding assay measures the ability of each peptide to stabilize the ternary MHC-peptide complex for […], HLA-A*0201, HLA¬A*0301, HLA-A*2402, HLA-B*0702, HLA-B*0801, HLA-B*3501 representative of main HLA class I supertypes. Each tested peptide is given a score relative to a pass/fail control peptide and also compared to a positive control peptide.
(§3) Detection is based on the presence or absence of the native conformation of the MHC-peptide complex. The highly frequent HLA class I alleles (HLA-A*0201, A*0301, A*1101, A*2402, B*0702, B*0801, and B*3501) were selected. Binding to MHC molecules was compared to that of a known T-cell epitope, a positive control peptide, with very strong binding properties. […] The score of the test peptide is reported quantitatively as a percentage of the signal generated by the positive control peptide, and the peptide is indicated as having a putative pass or fail result. Good binders are considered to be those peptides with scores 45% of the positive control as defined by ProImmune.

[8] = test system: PBMC from chronic HBV-infected subjects; experiment: IFNγ ELISpot of PBMC restimulated with individual unconjugated HBV long peptides (Example 5); format: cell-based, human; conditions: for T cell responses (IFNγ ELISpot), level and frequency of responders: HBeAg-negative inactive carriers and HBeAg-negative treated subjects, 5 μg/mL, 18 h, FIGS. 9 and 10; for T cell responses (IFNγ ELISpot) grouped by infecting HBV genotype: genotypes A, B, C & D, FIG. 11; for T cell responses (IFNγ ELISpot) grouped by ethnic background: three ethnic groups, FIG. 12
Method: One vial of PBMC from each subject (containing 1×10^7 cells) was thawed and lymphocyte numbers were determined using a Scepter™ automated handheld cell counter. PBMC were cultured in 2 mL culture medium (CM: RPMI-1640 Glutamax supplemented with 5% human AB serum) in 24 well cell culture plates at a concentration of 1×10^6 cells/mL for a total of 11 days. Cells were stimulated with a mixture of the nine HBV-derived long peptides described in Example 3.
Each peptide was used at a final concentration of 1 μg/peptide/mL. On Day 4, IL-2 and IL-15 were added to the cultures to final concentrations of 10 IU/mL and 10 ng/mL respectively. On Day 10, cells were washed twice in CM and cultured with 10 IU/mL IL-2 for 1 additional day. On Day 11, cells were washed twice in CM, counted and incorporated in a human IFNγ (interferon-gamma) ELISpot assay or intracellular cytokine staining.
Cells from short term cultures were plated in triplicate wells at 5×10^4 PBMC/well. Final antigen concentrations used were: 5 μg/mL for each individual peptides; PHA positive control: 1 μg/mL.

[9] = biological target: HLA-B*0801 (Homo sapiens, UniProt P01889, A93T/A95T/D138N/E176V/E187T/K202T/Q94N/R180D/S35A/V36M/Y33D/Y91F); experiment: ProImmune REVEAL MHC class I binding assay of nonamers; conditions: score as % of positive control peptide
Text: as §2, §3

[10] = biological target: HLA-A*0201 (Homo sapiens, UniProt P04439, D140Y/D185E/D98H/E176V/E277Q/G131W/G231S/I119V/I121R/I166T/I218V/L300P/L318F/N151K/N90K/P208A/P217A/Q86G/Q94H/R138H/R169H/T345S); experiment: as above; conditions: score as % of positive control peptide
Text: as §2, §3

[11] = biological target: HLA-A*2402 (Homo sapiens, UniProt P04439, D101N/D140Y/D185E/E176V/E190D/F33S/G103R/G107R/I119L/I121M/I306V/K335N/L105A/L180Q/L300P/N151K/N90K/Q86E/Q94H/R106L/R138H/R89G/T104I/T345S/V100E/W191G/Y123F); experiment: as above; conditions: score as % of positive control peptide
Text: as §2, §3

[12] = biological target: T3, HLA-A*1101 (Homo sapiens, UniProt P04439, A114D/D185E/E176A/F33Y/L180Q/S129P/T187R); experiment: as above; conditions: score as % of positive control peptide
T3 construct: purchased ProImmune
Text: as §2, §3

[13] = biological target: T4, HLA-B*0702 (Homo sapiens, UniProt P01889); experiment: as above; conditions: score as % of positive control peptide
T4 construct: purchased ProImmune
Text: as §2, §3

[14] = biological target: HLA-B*3501 (Homo sapiens, UniProt P01889, A329T/A93T/A95T/C349S/D201E/D98Y/E176V/E187L/E204Q/E69T/I218V/K202T/L119I/Q94N/R155S/R180L/S121R/S35A/S48A/T118I/V127L/V306I/V36M/Y140S/Y91F); experiment: as above; conditions: score as % of positive control peptide
Text: as §2, §3

[15] = biological target: T5, HLA-A*0301 (Homo sapiens, UniProt P04439); experiment: as above; conditions: score as % of positive control peptide
T5 construct: purchased ProImmune
Text: as §2, §3

[16] = test system: HLA-DP4 (α1*01:03;β1*04:01); experiment: ProImmune REVEAL MHC class II binding assay of long peptides; set-up: species or system human; conditions: percentage of the signal of the positive control peptide; positive binding score >=15%
[17] = biological target: T6, HLA-DR13 (α1*01:01;β1*13:01) (Homo sapiens, UniProt P01903+P01911, A100E/A169T/K41T/L162R/M171V/P40S/Q125H/Q178H/Q39Y/Q99D/R42S/S66N/W38E/Y61H); experiment: as above; conditions: percentage of the signal of the positive control peptide; positive binding score >=15%
T6 construct: purchased ProImmune
T6 sequence (P01903 26-216, other chains not shown): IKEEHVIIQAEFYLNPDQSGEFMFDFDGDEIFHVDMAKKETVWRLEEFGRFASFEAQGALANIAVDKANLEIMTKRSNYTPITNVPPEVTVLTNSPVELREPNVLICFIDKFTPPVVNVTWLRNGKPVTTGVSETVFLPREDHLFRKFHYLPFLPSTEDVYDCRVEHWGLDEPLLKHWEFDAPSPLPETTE
Text: The highly frequent HLA class II alleles HLA-DR1 (α1*01:01;β1*01:01), HLA-DR15 (α1*01:01;β1*15:01), HLA-DR3 (α1*01:01;β1*03:01), HLA-DR4 (α1*01:01;β1*04:01), HLA-DR11 (α1*01:01;β1*11:01), HLA-DR13 (α1*01:01;β1*13:01), and HLA-DR7 (α1*01:01;β1*07:01) were selected. Each peptide was given a score relative to the positive control peptide, which is a known T-cell epitope.

| Compound | dispersibility / solubility [1] | Number of allele (a) [2] | binding score, HLA-DR15 (α1*01:01;β1*15:01) [3] | binding score, HLA-DR7 (α1*01:01;β1*07:01) [4] | binding score, HLA-DR1 (α1*01:01;β1*01:01) [5] | binding score, HLA-DR3 (α1*01:01;β1*03:0) [6] | Number of allele (b) [7] | Number of HLA binders (a) [7] | T cell responses (IFNγ ELISpot), level and frequency of responders [8] | T cell responses (IFNγ ELISpot) grouped by infecting HBV genotype [8] | T cell responses (IFNγ ELISpot) grouped by ethnic background [8] | Number of nonamers having a binding score >= 45%, HLA-B*0801 [9] | Number of nonamers having a binding score >= 45%, HLA-A*0201 [10] | Number of nonamers having a binding score >= 45%, HLA-A*2402 [11] | Number of nonamers having a binding score >= 45%, HLA-A*1101 [12] | Number of nonamers having a binding score >= 45%, HLA-B*0702 [13] | Number of nonamers having a binding score >= 45%, HLA-B*3501 [14] | Number of nonamers having a binding score >= 45%, HLA-A*0301 [15] | binding score, HLA-DP4 (α1*01:03;β1*04:01) [16] | binding score, HLA-DR13 (α1*01:01;β1*13:01) [17] |
| --- | --- | --- | --- | --- | --- | --- | --- | --- | --- | --- | --- | --- | --- | --- | --- | --- | --- | --- | --- | --- |
| CC[C@H](C)[C@H](NC(=O)[C@H](CC(C)C)NC(=O)[C@H](CS)NC(=O)[C@H](CC(C)C)NC(=O)[C@H](CC(C)C)NC(=O)[C@H](CC(C)C)NC(=O)[C@@H](NC(=O)[C@@H](N)Cc1ccccc1)[C@@H](C)CC)C(=O)N[C@@H](Cc1ccccc1)C(=O)N[C@@H](CC(C)C)C(=O)N[C@@H](CC(C)C)C(=O)N[C@H](C(=O)N[C@@H](CC(C)C)C(=O)N[C@@H](CC(C)C)C(=O)N[C@@H](CC(=O)O)C(=O)N[C@@H](Cc1ccc(O)cc1)C(=O)N[C@@H](CCC(N)=O)C(=O)NCC(=O)N[C@@H](CCSC)C(=O)N[C@@H](CC(C)C)C(=O)O)C(C)C [SEQ ID NO: 213] | could not be dispersed due to insolubility | – | – | – | – | – | – | – | – | – | – | – | – | – | – | – | – | – | – | – |
| CC[C@H](C)[C@H](NC(=O)[C@H](Cc1ccccc1)NC(=O)[C@H](CC(C)C)NC(=O)[C@H](Cc1ccccc1)NC(=O)[C@@H](NC(=O)[C@@H](NC(=O)[C@H](Cc1ccccc1)NC(=O)[C@H](CCCNC(=N)N)NC(=O)[C@H](CCCNC(=N)N)NC(=O)[C@@H](N)CC(C)C)[C@@H](C)CC)[C@@H](C)CC)C(=O)N[C@@H](CC(C)C)C(=O)N[C@@H](CC(C)C)C(=O)N[C@@H](CC(C)C)C(=O)N[C@@H](CS)C(=O)N[C@@H](CC(C)C)C(=O)N[C@H](C(=O)N[C@@H](Cc1ccccc1)C(=O)N[C@@H](CC(C)C)C(=O)N[C@@H](CC(C)C)C(=O)N[C@H](C(=O)O)C(C)C)[C@@H](C)CC [SEQ ID NO: 212] | could not be dispersed due to insolubility | – | – | – | – | – | – | – | – | – | – | – | – | – | – | – | – | – | – | – |
| NP856(K): unconjugated HBV long peptide, core 839-873 + KKK (LTFGRETVLEYLVSFGVWIRTPPAYRPPNAPILSTKKK; HBV CONSENSUS SEQUENCE) | – | 0 | 5.71% | 0.40% | 2.33% | 0.13% | 4 | 11 | highest level of responses in both patient populations and in the highest proportion of subjects | highest responses across all four genotypes A, B, C & D | highest responses across all three ethnic groups | 1 | 4 | 4 | 0 | 2 | 0 | 0 | 10.72% | 0.00% |
| NP877: unconjugated HBV long peptide, core 860-890 | – | 1 | 0.09% | 2.78% | 0.24% | 5.58% | 4 | 6 | highest level of responses in both patient populations and in the highest proportion of subjects | highest responses across all four genotypes A, B, C & D | highest responses across all three ethnic groups | 1 | 2 | 2 | 0 | 1 | 0 | 0 | 0.04% | – |
